Test results published in article PMC8864165, “Functional Effects of ARV-1502 Analogs Against Bacterial Hsp70 and Implications for Antimicrobial Activity” (Frontiers in Chemistry, 2022).
Square brackets hold non-standard residues; d marks the D form. Peptide text beside a SMILES is read from it. Ac6c = NC1(C(=O)O)CCCCC1

How the values were obtained:
S. aureus DnaK [1] = target: T1, S. aureus DnaK (Staphylococcus aureus, UniProt P99110); assay: Competitive fluorescence polarization Ki; format: binding; conditions: unlabeled peptide competing with Cf-labeled peptide; DnaK 16 µmol/L; 90 + 90 min, 28°C
T1 construct: His6-tag with TEV site ([…]) (N, cleaved yes); made in house; host or cells: E. coli (DE3) Rosetta pLysS
Protocol: (§1) The quality of the experimental set up was evaluated by the Z′ factor ([Zhang et al., 1999]) (Supplementary Table S2). […] The obtained FP-values were normalized to the FP-values determined for lead sequence ARV-1502.

E. coli DnaK [2] = target: T2, E. coli DnaK (Escherichia coli, UniProt P0A6Y8); format: binding
T2 construct: His6-tag with TEV site ([…]) (N, cleaved yes); made in house; host or cells: E. coli (DE3) Rosetta pLysS
Protocol: The plate was incubated (90 min, 28°C, dark) and Cf-ARV-1502 (80 nmol/L; 10 µL/well) added. […] Each peptide was screened in duplicate. Control samples either lacked the unlabeled peptide (maximum) or contained Cf-ARV-1502 in buffer (minimum).
as §1

S. aureus DnaK [3] = target: T1, S. aureus DnaK; assay: FP peptide binding screening against Cf-ARV-1502; conditions: screening: DnaK 16 µmol/L, unlabeled peptide 35 µmol/L, duplicate, below 1 = better than ARV-1502
[4] = test system: S. aureus DnaK/DnaJ/GrpE-chaperone system; assay: ATPase activity assay (malachite green), chaperone system; format: biochemical, Staphylococcus aureus; conditions: peptide screen, 0.3 mmol/L peptide; for ATPase activity of the S. aureus DnaK/DnaJ/GrpE system, normalized to activity without peptide (100%): 37°C, 2 h, triplicates
Protocol: (§2) ATPase activity of E. coli and S. aureus chaperones was studied in the presence of an AMP using a 384-well plate colorimetric assay ([Chang et al., 2008]; [Zahn et al., 2013]). […] The chaperone mix (13.5 µL) was incubated with an aqueous peptide solution (1.5 µL; final concentration 0.3 mmol/L) at 37°C for 30 min in a non-binding 384-well plate (flat bottom, Greiner Bio-One GmbH). Each sample was prepared in triplicates on the same plate. The reaction was started by addition of ATP dissolved in assay buffer (5 µL, 4 mmol/L) and the plate centrifuged (500 × g, 2 min; Allegra™ 21R, Beckmann Coulter, Krefeld, Germany) before incubated (37°C, 2 h). The released phosphate was quantified using an external phosphate dilution series (10–200 µmol/L KH2PO4 in assay buffer) prepared on each plate and treated equally as the samples. The reaction was stopped by adding assay buffer (80 µL) to all samples except the phosphate dilution series. Aliquots of all samples (10 µL) were transferred to a clear 384-well plate (flat bottom, Greiner Bio-One GmbH) and malachite green reagent added (90 µL; mixture of malachite green in water (0.04%, w/v), ammonium molybdate (2%, w/w) in aqueous sulfuric acid (3.5 mol/L), and water at a ratio of 1:1:3.6, v/v/v). After 15 min, the absorbance was recorded at 620 nm on the […]™ microplate reader. The phosphate standard curve was fitted by a hyperbolic equation y = (ax)/(b + x) + c.

[5] = test system: E. coli DnaK/DnaJ/GrpE-chaperone system; assay: as above; format: biochemical, Escherichia coli; conditions: peptide screen, 0.3 mmol/L peptide; for ATPase activity of the E. coli DnaK/DnaJ/GrpE system, normalized to activity without peptide (100%): 37°C, 2 h, triplicates
Protocol: as §2

E. coli DnaK [6] = target: T2, E. coli DnaK; assay: Competitive fluorescence polarization Ki; format: binding; conditions: unlabeled peptide competing with Cf-labeled peptide; DnaK 5 µmol/L; 90 + 90 min, 28°C
Protocol: as §1

T2 sequence (P0A6Y8 whole entry): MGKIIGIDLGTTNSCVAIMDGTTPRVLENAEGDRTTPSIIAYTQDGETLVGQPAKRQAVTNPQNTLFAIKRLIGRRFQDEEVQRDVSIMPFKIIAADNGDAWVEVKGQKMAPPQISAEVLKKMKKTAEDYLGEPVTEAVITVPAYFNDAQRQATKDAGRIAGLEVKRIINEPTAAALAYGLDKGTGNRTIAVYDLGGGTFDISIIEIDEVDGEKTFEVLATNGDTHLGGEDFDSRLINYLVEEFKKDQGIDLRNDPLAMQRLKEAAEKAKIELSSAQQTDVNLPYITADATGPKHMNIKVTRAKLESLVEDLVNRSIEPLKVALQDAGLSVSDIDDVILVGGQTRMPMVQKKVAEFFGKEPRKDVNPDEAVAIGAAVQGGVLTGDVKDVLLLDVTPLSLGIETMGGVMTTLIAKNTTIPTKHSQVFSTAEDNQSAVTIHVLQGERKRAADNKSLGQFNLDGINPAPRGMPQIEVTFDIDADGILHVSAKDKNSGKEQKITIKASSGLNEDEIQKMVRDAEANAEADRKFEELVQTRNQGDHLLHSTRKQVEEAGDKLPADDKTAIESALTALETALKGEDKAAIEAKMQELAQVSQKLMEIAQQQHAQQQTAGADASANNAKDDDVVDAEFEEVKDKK
T1 sequence (P99110 whole entry): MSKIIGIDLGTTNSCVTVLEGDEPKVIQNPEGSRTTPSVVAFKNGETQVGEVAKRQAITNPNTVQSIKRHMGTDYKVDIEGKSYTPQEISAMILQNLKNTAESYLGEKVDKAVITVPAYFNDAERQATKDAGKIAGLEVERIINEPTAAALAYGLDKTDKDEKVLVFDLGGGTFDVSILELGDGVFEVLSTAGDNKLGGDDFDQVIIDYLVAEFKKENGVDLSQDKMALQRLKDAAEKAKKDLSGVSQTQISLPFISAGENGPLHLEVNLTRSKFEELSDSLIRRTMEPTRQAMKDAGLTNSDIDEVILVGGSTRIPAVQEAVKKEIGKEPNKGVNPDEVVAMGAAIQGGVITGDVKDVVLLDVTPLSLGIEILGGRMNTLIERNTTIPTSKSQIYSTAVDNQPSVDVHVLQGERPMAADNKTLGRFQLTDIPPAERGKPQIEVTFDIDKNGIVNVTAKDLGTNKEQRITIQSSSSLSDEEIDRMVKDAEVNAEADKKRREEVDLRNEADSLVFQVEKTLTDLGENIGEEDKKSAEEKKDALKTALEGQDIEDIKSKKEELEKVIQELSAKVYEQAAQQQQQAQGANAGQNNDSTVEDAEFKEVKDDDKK

Row | Compound | binding to E. coli DnaK, FP-value normalized to ARV-1502 (E. coli DnaK [2]) | binding to S. aureus DnaK, FP-value normalized to ARV-1502 (S. aureus DnaK [3]) | also measured
1 | CC(C)C[C@H](NC(=O)[C@H](CO)NC(=O)[C@@H]1CCCN1C(=O)[C@H](CCCNC(=N)N)NC(=O)[C@@H]1CCCN1C(=O)[C@H](CCCCN)NC(=O)[C@H](CC(=O)O)NC(=O)[C@@H]1CCCN1C(=O)[C@H](CCCNC(=N)N)NC(=O)C1(N)CCCCC1)C(=O)N1CCC[C@H]1C(=O)N[C@@H](Cc1ccccc1)C(=O)N1CCC[C@H]1C(=O)N[C@@H](CCCNC(=N)N)C(=O)N1CCC[C@H]1C(=O)N1CCC[C@H]1C(=O)N[C@@H](CCCNC(=N)N)C(=O)N1CCC[C@H]1C(=O)N[C@H](C(=O)N[C@@H](CCCNC(=N)N)C(N)=O)C(C)C [compound 130] (H-[Ac6c]RPDKPRPSLPFPRPPRPVR-NH2) |  |  | Ki (S. aureus DnaK [1]): 8.46 µM
2 | CC(C)C[C@H](NC(=O)[C@H](Cc1ccc(O)cc1)NC(=O)[C@@H]1CCCN1C(=O)[C@H](CCCNC(=N)N)NC(=O)[C@@H]1CCCN1C(=O)[C@H](Cc1ccccc1)NC(=O)[C@H](Cc1ccccc1)NC(=O)[C@@H]1CCCN1C(=O)[C@H](CCCNC(=N)N)NC(=O)C1(N)CCCCC1)C(=O)N[C@@H](CO)C(=O)N[C@@H](CCCNC(=N)N)C(=O)N1CCC[C@H]1C(=O)N[C@@H](CCCNC(=N)N)C(=O)N1CCC[C@H]1C(=O)N1CCC[C@H]1C(=O)N[C@@H](CCCNC(=N)N)C(=O)N1CCC[C@H]1C(=O)N[C@H](C(=O)N[C@@H](CCCNC(=N)N)C(N)=O)C(C)C [compound 99] (H-[Ac6c]RPFFPRPYLSRPRPPRPVR-NH2) | best binders | best binders | DnaK binding in the screening, in words (E. coli DnaK [2]; FP screening, DnaK variant not stated at the place): best binding
3 | Chex-RPSSPRPYLPSPRPPRPVR-NH2 [compound 83, substituted analog of ARV-1502] |  |  | ATPase activity of the S. aureus DnaK/DnaJ/GrpE system, normalized to activity without peptide (100%) [4]: more than 160%
4 | Chex-RPDKPRPKSPRPRPPRPVR-NH2 [compound 122, substituted analog of ARV-1502] | bound neither | bound neither | 
5 | Chex-RPDKPRPSLPRSRPPRPVR-NH2 [compound 133, substituted analog of ARV-1502] |  | best binders | 
6 | Chex-RPDKPRPDLPRSRPPRPVR-NH2 [compound 119, substituted analog of ARV-1502] |  |  | ATPase activity of the S. aureus DnaK/DnaJ/GrpE system, normalized to activity without peptide (100%) [4]: more than 160%
7 | Chex-RPDDPRPYLPLPRPPRPVR-NH2 [compound 66, substituted analog of ARV-1502] |  |  | decrease of ATPase activity, E. coli chaperone system [5]: at least 40%; ATPase activity of the E. coli DnaK/DnaJ/GrpE system, normalized to activity without peptide (100%) [5]: below 60%
8 | CC(C)C[C@H](NC(=O)[C@H](Cc1ccc(O)cc1)NC(=O)[C@@H]1CCCN1C(=O)[C@H](CCCNC(=N)N)NC(=O)[C@@H]1CCCN1C(=O)[C@H](CCCCN)NC(=O)[C@H](CCCCN)NC(=O)[C@@H]1CCCN1C(=O)[C@H](CCCNC(=N)N)NC(=O)C1(N)CCCCC1)C(=O)N1CCC[C@H]1C(=O)N[C@@H](CCCNC(=N)N)C(=O)N1CCC[C@H]1C(=O)N[C@@H](CCCNC(=N)N)C(=O)N1CCC[C@H]1C(=O)N1CCC[C@H]1C(=O)N[C@@H](CCCNC(=N)N)C(=O)N1CCC[C@H]1C(=O)N[C@H](C(=O)N[C@@H](CCCNC(=N)N)C(N)=O)C(C)C [peptide 2] (H-[Ac6c]RPKKPRPYLPRPRPPRPVR-NH2) |  |  | Ki (E. coli DnaK [6]): 0.6 µM
9 | Chex-RPDDPRPYLPRDRPPRPVR-NH2 [compound 68, substituted analog of ARV-1502] |  |  | decrease of ATPase activity, E. coli chaperone system [5]: 50%
10 | Chex-RPFFPRPYLPSPRPPRPVR-NH2 [compound 101, substituted analog of ARV-1502] | best binders | best binders | 
11 | Chex-RPDKPRPDLPRDRPPRPVR-NH2 [compound 117, substituted analog of ARV-1502] |  |  | ATPase activity of the E. coli DnaK/DnaJ/GrpE system, normalized to activity without peptide (100%) [5]: below 60%; increase of ATPase activity, S. aureus chaperone system [4]: ≥ 60%
12 | CC(C)C[C@H](NC(=O)[C@H](Cc1ccc(O)cc1)NC(=O)[C@@H]1CCCN1C(=O)[C@H](CCCNC(=N)N)NC(=O)[C@@H]1CCCN1C(=O)[C@H](CCCCN)NC(=O)[C@H](CCCCN)NC(=O)[C@@H]1CCCN1C(=O)[C@H](CCCNC(=N)N)NC(=O)C1(N)CCCCC1)C(=O)N1CCC[C@H]1C(=O)N[C@@H](Cc1ccccc1)C(=O)N1CCC[C@H]1C(=O)N[C@@H](CCCNC(=N)N)C(=O)N1CCC[C@H]1C(=O)N1CCC[C@H]1C(=O)N[C@@H](CCCNC(=N)N)C(=O)N1CCC[C@H]1C(=O)N[C@H](C(=O)N[C@@H](CCCNC(=N)N)C(N)=O)C(C)C [compound 46] (H-[Ac6c]RPKKPRPYLPFPRPPRPVR-NH2) |  |  | Ki (E. coli DnaK [6]): 0.66 µM; Ki (S. aureus DnaK [1]): 15.6 µM
13 | Chex-RPFFPRPKLPRPRPPRPVR-NH2 [compound 90, substituted analog of ARV-1502] | best binders | best binders | 
14 | Chex-RPDKPRPDDPRPRPPRPVR-NH2 [compound 107, substituted analog of ARV-1502] |  |  | increase of ATPase activity, S. aureus chaperone system [4]: ≥ 60%
15 | Chex-RPFFPRPYLPRSRPPRPVR-NH2 [compound 106, substituted analog of ARV-1502] | best binders | best binders | 
16 | Chex-RPDKPRPYKPDPRPPRPVR-NH2 [compound 160, substituted analog of ARV-1502] |  | best binders | 
17 | Chex-RPFFPRPSLPRPRPPRPVR-NH2 [compound 91, substituted analog of ARV-1502] | best binders | best binders | 
18 | Chex-RPDDPRPKLPRPRPPRPVR-NH2 [compound 54, substituted analog of ARV-1502] |  | best binders | 
19 | Chex-RPDKPRPSLDRPRPPRPVR-NH2 [compound 128, substituted analog of ARV-1502] |  |  | ATPase activity of the E. coli DnaK/DnaJ/GrpE system, normalized to activity without peptide (100%) [5]: below 60%
20 | Chex-RPDKPRPYSPLPRPPRPVR-NH2 [compound 172, substituted analog of ARV-1502] |  | best binders | 
21 | Chex-RPDKPRPDKPRPRPPRPVR-NH2 [compound 108, substituted analog of ARV-1502] | bound neither | bound neither | 
22 | Chex-RPDDPRPDLPRPRPPRPVR-NH2 [compound 53, substituted analog of ARV-1502] |  |  | increase of ATPase activity, S. aureus chaperone system [4]: ≥ 60%
23 | Chex-RPDKPRPYSPDPRPPRPVR-NH2 [compound 170, substituted analog of ARV-1502] |  | best binders | 
24 | CC(C)C[C@H](NC(=O)[C@H](Cc1ccc(O)cc1)NC(=O)[C@@H]1CCCN1C(=O)[C@H](CCCNC(=N)N)NC(=O)[C@@H]1CCCN1C(=O)[C@H](Cc1ccccc1)NC(=O)[C@H](Cc1ccccc1)NC(=O)[C@@H]1CCCN1C(=O)[C@H](CCCNC(=N)N)NC(=O)C1(N)CCCCC1)C(=O)N1CCC[C@H]1C(=O)N[C@@H](CCCNC(=N)N)C(=O)N[C@@H](CCCCN)C(=O)N[C@@H](CCCNC(=N)N)C(=O)N1CCC[C@H]1C(=O)N1CCC[C@H]1C(=O)N[C@@H](CCCNC(=N)N)C(=O)N1CCC[C@H]1C(=O)N[C@H](C(=O)N[C@@H](CCCNC(=N)N)C(N)=O)C(C)C [peptide 105] (H-[Ac6c]RPFFPRPYLPRKRPPRPVR-NH2) | best binders | best binders | 
